Source: patent US9217014B2, “Antifungal agents and uses thereof” (Cidara Therapeutics, Inc., priority 2011, dated 2015)
Read-outs that look alike come from different tables or passages of the source.

Assays:
[1] = Pharmacokinetics in beagle dogs, intravenous; assay type: in vivo; details: for CI / half-life / Vd: 1.4 mg/kg intravenous slow bolus, mean ± SEM, n = 4 beagle dogs; for half-life / Vd: dog; for half-life: read-out: T ½ (converted); for Vd: read-out: Vz
Description: The test articles were administered to beagle dogs weighing approximately 6-10 kg. Each test article was dosed at 1.4 mg/kg in aqueous saline (with or without 0.5% Tween) over course of 1-10 minutes. […] The dogs were fasted at least 12 hours prior to each dosing and offered food after the 4-hour blood sample was taken; water was withheld for 1 hour prior to and 4 hours following each dosing event. The dose for each animal was based on its most recent body weight. The test article was injected intravenously via a catheter placed in the cephalic vein as a slow bolus.
Blood was collected via the jugular vein. All blood samples (˜1 mL each) were collected into K3EDTA tubes. Following blood collection, the samples were immediately inverted several times and were held on wet ice pending centrifugation. The samples were centrifuged within ˜30 minutes of collection under refrigeration (˜5° C. for ˜10 minutes at ˜2000 g) to obtain plasma. The plasma was frozen immediately on dry ice after separation. The plasma samples were stored at approximately −70° C. until analysis.
Plasma (100 μL) was precipitated with 400 μL of 0.1% formic acid in acetonitrile containing the internal standard (100 ng/mL pneumocandin). The samples were then capped and vortexed for about 30 seconds followed by centrifugation at 14,000 rpm at room temperature for 10 minutes. Following centrifugation 200 μL of supernatant was transferred to plastic autosampler vials containing 200 μL of 0.1% formic acid in water and vortexed. Samples were then analyzed by LCMSMS.
All pharmacokinetic calculations were performed using WinNonlin version 4.1 (Pharsight Corp) by noncompartmental analysis.

C. albicans R303 = test: mouse candidiasis infection model, IP administration, kidney fungal burden; assay type: in vivo; details: for overall performance in reducing C. albicans CFUs in the kidneys of the mice: conclusion over all runs
Method in brief: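 Female CD-1 mice rendered neutropenic with IP cyclophosphamide 150 mg/kg at days −4 and −1. Mice infected IV via tail vein with C. albicans R303, then given test compounds IP 2 h post-infection. Kidney fungal burden determined as CFU by plate counts; values are means of four mice.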

Candida glabrata = test: MIC versus a strain of Candida glabrata in 50% human serum; assay type: cell-based
Description: (§1) MIC values (μg/mL) of anidulafungin, caspofungin, amphotericin B, compound 1, and compound 16 against various Candida species in the presence and absence of 50% human serum were obtained as follows.
(§2) Test organisms were obtained from the American Type Culture Collection (Manassas, Va.). The isolates were maintained at −80° C., then thawed and sub-cultured prior to testing.
(§3) The MIC assay method followed the procedure described by the Clinical and Laboratory Standards Institute and employed automated liquid handlers to conduct serial dilutions and liquid transfers. The wells in columns 1-12 in standard 96-well microdilution plates were filled with 150 μL of DMSO. These would become the ‘mother plates’ from which ‘daughter’ or test plates would be prepared. The drugs (150 μL at 80× the desired top concentration in the test plates) were dispensed into the appropriate well in column 1 of the mother plates and mixed. Serial 1:1 dilutions were made through Column 11 in the “mother plate”. The wells of column 12 contained no drug and were the organism growth control wells. […]
(§4) Plates were covered with a lid, placed in plastic bags, and incubated at 35° C. The Candida isolates were read after 24 h incubation and again at 48 h. […]
(§5) For Candida species, the Minimal Inhibitory Concentration (MIC) was read per CLSI guidelines.

Candida spp. = test: MIC values versus Candida spp. at 24 and 48 hours; assay type: cell-based; details: presence and absence of 50% human serum
Description: as §1, §2, §3, §4, §5

[2] = beagle dogs, 1.4 mg/kg intravenous
[3] = Candida albicans, R303, ip, 24 h, Fifth run, IP 0.5 mg/kg, read-out: Difference from 24-h control
[4] = Candida albicans, R303, ip, 24 h, Fifth run, IP 1.5 mg/kg, read-out: Difference from 24-h control
[5] = Candida albicans, R303, ip, 24 h, Fifth run, IP 4.5 mg/kg, read-out: Difference from 24-h control
[6] = Fifth run, IP 0.5 mg/kg, kidneys 24 h after infection
[7] = Fifth run, IP 1.5 mg/kg, kidneys 24 h after infection
[8] = Fifth run, IP 4.5 mg/kg, kidneys 24 h after infection

Compound	CI [1] [mL/min/kg]	log reduction at 0.5 mg/kg (C. albicans R303; [3])	log reduction at 1.5 mg/kg (C. albicans R303; [4])	log reduction at 4.5 mg/kg (C. albicans R303; [5])	Mean log10 CFU/kidneys (±SEM) (C. albicans R303; [6]) [log10 CFU/kidneys]	Mean log10 CFU/kidneys (±SEM) (C. albicans R303; [7]) [log10 CFU/kidneys]	Mean log10 CFU/kidneys (±SEM) (C. albicans R303; [8]) [log10 CFU/kidneys]	overall performance in reducing C. albicans CFUs in the kidneys of the mice (C. albicans R303)	activity against a strain of Candida glabrata in comparison to anidulafungin (Candida glabrata)	activity against Candida strains relative to anidulafungin (MIC) (Candida spp.)	other results
CCCCCOc1ccc(-c2ccc(-c3ccc(C(=O)N[C@H]4C[C@@H](O)C(OCC[N+](C)(C)C)NC(=O)C5[C@@H](O)[C@@H](C)CN5C(=O)C([C@@H](C)O)NC(=O)C([C@H](O)[C@@H](O)c5ccc(O)cc5)NC(=O)C5C[C@@H](O)CN5C(=O)C([C@@H](C)O)NC4=O)cc3)cc2)cc1 (stereo partly shown) [compound 1]	0.301 ± 0.0243	1.47	3.58	4.81	3.67 ± 0.07	1.56 ± 0.15	0.33 ± 0.33	performed strongly	superior activity	retain their activity	circulating half-life (in words) [1, 2]: surprisingly long circulating half-life; volume of distribution (in words) [1, 2]: surprisingly large volume of distribution; half-life ([1]; beagle, in vivo, iv, 1.4 mg/kg): 53.1 ± 3.93 h; Vd ([1]; in vivo): 1.36 ± 0.0619 L/kg; log reduction at 5 mg/kg (C. albicans R303; Candida albicans, R303, ip, 24 h, First run, IP 5 mg/kg, read-out: Difference from 24-h control): 4.8; log reduction at 0.5 mg/kg (C. albicans R303; Candida albicans, R303, ip, 24 h, Second run, IP 0.5 mg/kg, read-out: Difference from 24-h control): 2.08; log reduction at 1.5 mg/kg (C. albicans R303; Candida albicans, R303, ip, 24 h, Second run, IP 1.5 mg/kg, read-out: Difference from 24-h control): 3.05; log reduction at 4.5 mg/kg (C. albicans R303; Candida albicans, R303, ip, 24 h, Second run, IP 4.5 mg/kg, read-out: Difference from 24-h control): 3.9; Mean log10 CFU/kidneys (±SD) (C. albicans R303; First run, IP 5 mg/kg, neutropenic mice, kidneys 24 h after infection): 0.40 ± 0.80 log10 CFU/kidneys; Mean log10 CFU/kidneys (±SEM) (C. albicans R303; Second run, IP 0.5 mg/kg, kidneys 24 h after infection): 2.80 ± 0.11 log10 CFU/kidneys; Mean log10 CFU/kidneys (±SEM) (C. albicans R303; Second run, IP 1.5 mg/kg, kidneys 24 h after infection): 1.83 ± 0.14 log10 CFU/kidneys; Mean log10 CFU/kidneys (±SEM) (C. albicans R303; Second run, IP 4.5 mg/kg, kidneys 24 h after infection): 0.98 ± 0.33 log10 CFU/kidneys
CCCCCOc1ccc(-c2ccc(-c3ccc(C(=O)N[C@H]4C[C@@H](O)C(NCC[N+](C)(C)C)NC(=O)C5[C@@H](O)[C@@H](C)CN5C(=O)C([C@@H](C)O)NC(=O)C([C@H](O)[C@@H](O)c5ccc(O)cc5)NC(=O)C5C[C@@H](O)CC5C(=O)C([C@@H](C)O)NC4=O)cc3)cc2)cc1 (stereo partly shown) [compound 16]	0.365 ± 0.014	3.22	3.74	4.08	1.91 ± 0.34	1.39 ± 0.16	1.05 ± 0.36	performed strongly	superior activity	retain their activity	half-life ([1]; plasma): 27.6 ± 1.11 h; Vd ([1]; plasma): 0.874 ± 0.0639 L/kg
